From the supplement of paper PMC10307832

Experiments:
Test in all cases: relative viability (nuclei count vs DMSO), 5 days (fraction); higher = more cells survive
[1] = system: NCI-H1734
Procedure, shortened: (§1)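 Each reported value is a median over duplicate plates. It expresses relative viability: treated-well nuclei count divided by vehicle-well nuclei count. Lung cancer cell lines in 1536-well plates were dosed by pin tool a day after seeding, alone with one drug or with a fixed anchor-drug dose plus five library-drug doses (not always all listed) in √10 steps, and nuclei were counted after 5 days.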

[2] = system: HARA
Procedure, shortened: as §1

[3] = system: NCI-H1993
Procedure, shortened: as §1

[4] = system: NCI-H647
Procedure, shortened: as §1

[5] = system: UMC-11
Procedure, shortened: as §1

[6] = system: NCI-H2228
Procedure, shortened: as §1

[7] = system: COR-L 105
Procedure, shortened: as §1

[8] = system: NCI-H2347
Procedure, shortened: as §1

[9] = system: HCC-15
Procedure, shortened: as §1

[10] = system: NCI-H1355
Procedure, shortened: as §1

[11] = system: NCI-H1792
Procedure, shortened: as §1

[12] = system: NCI-H838
Procedure, shortened: as §1

[13] = system: SK-MES-1
Procedure, shortened: as §1

[14] = system: NCI-H358
Procedure, shortened: as §1

[15] = system: NCI-H1755
Procedure, shortened: as §1

[16] = system: NCI-H2009
Procedure, shortened: as §1

[17] = system: HOP-62
Procedure, shortened: as §1

[18] = system: NCI-H2170
Procedure, shortened: as §1

[19] = system: COR-L23
Procedure, shortened: as §1

Structure (SMILES): Nc1ccn([C@@H]2O[C@H](CO)[C@@H](O)[C@@H]2O)c(=O)n1 [Cytarabine] + C[C@@H](Oc1cc(-c2cnn(C3CCNCC3)c2)cnc1N)c1c(Cl)ccc(F)c1Cl [Crizotinib] (partner 1 µM)
- relative viability ([1]; first compound 0.005 µM): 0.473
- relative viability ([1]; first compound 0.01581 µM): 0.326
- relative viability ([1]; first compound 0.05 µM): 0.23
- relative viability ([1]; first compound 0.1581 µM): 0.143
- relative viability ([1]; first compound 0.5 µM): 0.157
- relative viability ([2]; first compound 0.005 µM): 1.01
- relative viability ([2]; first compound 0.01581 µM): 0.682
- relative viability ([2]; first compound 0.05 µM): 0.333
- relative viability ([2]; first compound 0.1581 µM): 0.223
- relative viability ([2]; first compound 0.5 µM): 0.169
- relative viability ([3]; first compound 0.005 µM): 0.92
- relative viability ([3]; first compound 0.01581 µM): 0.785
- relative viability ([3]; first compound 0.05 µM): 0.845
- relative viability ([3]; first compound 0.1581 µM): 0.614
- relative viability ([3]; first compound 0.5 µM): 0.566
- relative viability ([4]; first compound 0.005 µM): 0.613
- relative viability ([4]; first compound 0.01581 µM): 0.518
- relative viability ([4]; first compound 0.05 µM): 0.243
- relative viability ([4]; first compound 0.1581 µM): 0.11
- relative viability ([4]; first compound 0.5 µM): 0.116
- relative viability ([5]; first compound 0.005 µM): 0.454
- relative viability ([5]; first compound 0.01581 µM): 0.52
- relative viability ([5]; first compound 0.05 µM): 0.336
- relative viability ([5]; first compound 0.1581 µM): 0.267
- relative viability ([5]; first compound 0.5 µM): 0.205
- relative viability ([6]; first compound 0.005 µM): 0.373
- relative viability ([6]; first compound 0.01581 µM): 0.31
- relative viability ([6]; first compound 0.05 µM): 0.218
- relative viability ([6]; first compound 0.1581 µM): 0.124
- relative viability ([6]; first compound 0.5 µM): 0.151
- relative viability ([7]; first compound 0.005 µM): 0.657
- relative viability ([7]; first compound 0.01581 µM): 0.725
- relative viability ([7]; first compound 0.05 µM): 0.511
- relative viability ([7]; first compound 0.1581 µM): 0.393
- relative viability ([7]; first compound 0.5 µM): 0.256
- relative viability ([8]; first compound 0.005 µM): 0.827
- relative viability ([8]; first compound 0.01581 µM): 0.719
- relative viability ([8]; first compound 0.05 µM): 0.573
- relative viability ([8]; first compound 0.1581 µM): 0.642
- relative viability ([8]; first compound 0.5 µM): 0.467
- relative viability ([9]; first compound 0.005 µM): 0.765
- relative viability ([9]; first compound 0.01581 µM): 0.895
- relative viability ([9]; first compound 0.05 µM): 0.84
- relative viability ([9]; first compound 0.1581 µM): 0.67
- relative viability ([9]; first compound 0.5 µM): 0.591
- relative viability ([10]; first compound 0.005 µM): 0.998
- relative viability ([10]; first compound 0.01581 µM): 1.03
- relative viability ([10]; first compound 0.05 µM): 0.973
- relative viability ([10]; first compound 0.1581 µM): 0.46
- relative viability ([10]; first compound 0.5 µM): 0.399
- relative viability ([11]; first compound 0.005 µM): 0.624
- relative viability ([11]; first compound 0.01581 µM): 0.882
- relative viability ([11]; first compound 0.05 µM): 0.861
- relative viability ([11]; first compound 0.1581 µM): 0.53
- relative viability ([11]; first compound 0.5 µM): 0.465
- relative viability ([12]; first compound 0.005 µM): 0.715
- relative viability ([12]; first compound 0.01581 µM): 0.877
- relative viability ([12]; first compound 0.05 µM): 0.699
- relative viability ([12]; first compound 0.1581 µM): 0.339
- relative viability ([12]; first compound 0.5 µM): 0.224
- relative viability ([13]; first compound 0.005 µM): 0.706
- relative viability ([13]; first compound 0.01581 µM): 0.741
- relative viability ([13]; first compound 0.05 µM): 0.367
- relative viability ([13]; first compound 0.1581 µM): 0.274
- relative viability ([13]; first compound 0.5 µM): 0.219
- relative viability ([14]; first compound 0.005 µM): 0.488
- relative viability ([14]; first compound 0.01581 µM): 0.5
- relative viability ([14]; first compound 0.05 µM): 0.352
- relative viability ([14]; first compound 0.1581 µM): 0.319
- relative viability ([14]; first compound 0.5 µM): 0.231
- relative viability ([15]; first compound 0.005 µM): 0.788
- relative viability ([15]; first compound 0.01581 µM): 0.761
- relative viability ([15]; first compound 0.05 µM): 0.565
- relative viability ([15]; first compound 0.1581 µM): 0.265
- relative viability ([15]; first compound 0.5 µM): 0.286
- relative viability ([16]; first compound 0.005 µM): 1.02
- relative viability ([16]; first compound 0.01581 µM): 1.01
- relative viability ([16]; first compound 0.05 µM): 0.955
- relative viability ([16]; first compound 0.1581 µM): 0.884
- relative viability ([16]; first compound 0.5 µM): 0.298
- relative viability ([17]; first compound 0.005 µM): 0.766
- relative viability ([17]; first compound 0.01581 µM): 0.49
- relative viability ([17]; first compound 0.05 µM): 0.379
- relative viability ([17]; first compound 0.1581 µM): 0.0643
- relative viability ([17]; first compound 0.5 µM): 0.0736
- relative viability ([18]; first compound 0.01581 µM): 0.925
- relative viability ([18]; first compound 0.05 µM): 0.912
- relative viability ([18]; first compound 0.1581 µM): 0.605
- relative viability ([18]; first compound 0.5 µM): 0.483
- relative viability ([19]; first compound 0.005 µM): 0.578
- relative viability ([19]; first compound 0.01581 µM): 0.631
- relative viability ([19]; first compound 0.05 µM): 0.405
- relative viability ([19]; first compound 0.1581 µM): 0.166
- relative viability ([19]; first compound 0.5 µM): 0.122
